Results taken from US20240132431A1, “METHOD FOR ALKYLATING ACIDIC FUNCTIONAL GROUP” (Chugai Seiyaku Kabushiki Kaisha, priority 2021, published 2024).
Blank lines part the entries; values can stand above or below the compound they belong to.

Target: T1, Bcl-2 protein (Recombinant Human Bcl-2 Protein) (Homo sapiens, UniProt P10415)
T1 construct: purchased Novus NBP2-34889
Test: Binding evaluation of mixture library compounds to Bcl-2 using AS-MS (affinity selection mass spectrometry)
Conditions: for ASMS ratio (%) n = 1 / ASMS ratio (%) n = 2: ASMS Ratio(%)=(A−C)/B×100; for ASMS ratio (%) n = 1: replicate n = 1; for ASMS ratio (%) n = 2: replicate n = 2
Summary of the method: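 Affinity selection MS: Bcl-2 20 μM + 1200-cpd mixture, […]/cpd, Tris pH 7.4 buffer w/ Tween-20, DTT; 1 h 23° C dark; P-2 spin SEC; MeCN/MeOH extraction; RP LC/MS. ASMS Ratio(%) = (A−C)/B×100.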

[1] = AS-MS, mixture of 1200 compounds, Bcl-2
[2] = AS-MS on the mixture of 1200 library compounds

T1 sequence (P10415 whole entry): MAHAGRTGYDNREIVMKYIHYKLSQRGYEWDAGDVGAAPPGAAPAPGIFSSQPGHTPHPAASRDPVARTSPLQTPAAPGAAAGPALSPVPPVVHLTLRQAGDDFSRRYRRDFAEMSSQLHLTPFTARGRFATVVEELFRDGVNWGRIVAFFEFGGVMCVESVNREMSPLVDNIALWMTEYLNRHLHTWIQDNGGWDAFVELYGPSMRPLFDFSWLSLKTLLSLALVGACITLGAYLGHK

ASMS ratio (%) (n = 1): 0.0%
ASMS ratio (%) (n = 2): 0.0%
Compound: CCOc1cncc(-c2csc(C(=O)N3CCN(c4ccc(C(=O)NS(=O)(=O)c5ccc(NCCSc6ccccc6)c(C(F)(F)F)c5)nn4)CC3)c2)c1 [B2R002-01, 6-[4-[4-(5-Ethoxypyridin-3-yl)thiophene-2-carbonyl]piperazin-1-yl]-N-[4-(2-phenylsulfanylethylamino)-3-(trifluoromethyl)phenyl]sulfonylpyridazine-3-carboxamide]

Compound: 6-[4-[4-(3-Ethoxyphenyl)-3-methylbenzoyl]piperazin-1-yl]-N-propylpyridazine-3-carboxamide [B1M036-01]
ASMS ratio (%) n = 1 [1]: 6.7%
ASMS ratio (%) n = 2 [1]: −1.2%

Compound: 6-[4-[2-[2-(3-Ethoxyphenyl)ethynyl]benzoyl]piperazin-1-yl]-N-propylpyridazine-3-carboxamide [B1M095-01]
ASMS ratio (%) n = 1 [2]: 0.0%
ASMS ratio (%) n = 2 [2]: 0.0%

ASMS ratio (%) n = 1 [2]: 9.8%
ASMS ratio (%) n = 2 [2]: 1.6%
Compound: CCOc1cncc(-c2ccc(C(=O)N3CCN(c4ccc(C(=O)N(C)CC56CC7CC(CC(C7)C5)C6)cc4)CC3)cc2F)c1 [B3A028-01, N-(1-Adamantylmethyl)-4-[4-[4-(5-ethoxypyridin-3-yl)-3-fluorobenzoyl]piperazin-1-yl]-N-methylbenzamide]

ASMS ratio (%) (n = 1): 0.0%
ASMS ratio (%) (n = 2): 33.9%
Compound: CCOc1cccc(-c2ccc(CN3CCN(c4ccc(C(=O)NS(=O)(=O)C(C)(C)C)nn4)CC3)c(CC)c2)c1 [B2L075-01, N-tert-Butylsulfonyl-6-[4-[[4-(3-ethoxyphenyl)-2-ethylphenyl]methyl]piperazin-1-yl]pyridazine-3-carboxamide]

Compound: 4-[4-[[3-(5-Ethoxypyridin-3-yl)-5-propan-2-yloxyphenyl]methyl]piperazin-1-yl]-N-propylbenzamide [B1M017-01]
ASMS ratio (%) n = 1 [1]: −0.1%
ASMS ratio (%) n = 2 [1]: 0.3%

ASMS ratio (%) n = 1 (AS-MS, mixture library, Bcl-2): −1.9%
ASMS ratio (%) n = 2 (AS-MS, mixture library, Bcl-2): 0.0%
Compound: CCOc1cncc(-c2csc(C(=O)N3CCN(c4ccc(C(=O)NS(=O)(=O)CC56CC7CC(CC(C7)C5)C6)cc4)CC3)c2)c1 [B2A024-01, N-(1-Adamantylmethylsulfonyl)-4-[4-[4-(5-ethoxypyridin-3-yl)thiophene-2-carbonyl]piperazin-1-yl]benzamide]

ASMS ratio (%) n = 1 (AS-MS, mixture library, Bcl-2): 6.6%
ASMS ratio (%) n = 2 (AS-MS, mixture library, Bcl-2): −4.1%
Compound: CCOc1cncc(C#Cc2ccccc2C(=O)N2CCN(c3ccc(C(=O)NS(=O)(=O)c4ccc(NCCSc5ccccc5)c([N+](=O)[O-])c4)cc3)CC2)c1 [B2Q030-01, 4-[4-[2-[2-(5-Ethoxypyridin-3-yl)ethynyl]benzoyl]piperazin-1-yl]-N-[3-nitro-4-(2-phenylsulfanylethylamino)phenyl]sulfonylbenzamide]

Compound: 6-[4-[3-[2-(3-Ethoxyphenyl)ethynyl]-5-(trifluoromethyl)benzoyl]piperazin-1-yl]-N-propylpyridazine-3-carboxamide [B1M013-01]
ASMS ratio (%) n = 1 [1]: 2.9%
ASMS ratio (%) n = 2 [1]: −1.1%

ASMS ratio (%) n = 1 (AS-MS, mixture library, Bcl-2): 4.6%
ASMS ratio (%) n = 2 (AS-MS, mixture library, Bcl-2): −2.7%
Compound: CCOc1cccc(-c2ccc(C(=O)N3CCN(c4ccc(C(=O)NS(=O)(=O)CC56CC7CC(CC(C7)C5)C6)cc4)CC3)cc2C)c1 [B2A025-01, N-(1-Adamantylmethylsulfonyl)-4-[4-[4-(3-ethoxyphenyl)-3-methylbenzoyl]piperazin-1-yl]benzamide]

ASMS ratio (%) (n = 1): 5.5%
ASMS ratio (%) (n = 2): 9.3%
Compound: CCOc1cncc(-c2ccc(C(=O)N3CCN(c4ccc(C(=O)NS(=O)(=O)C(C)(C)C)nn4)CC3)cc2C)c1 [B2L004-01, N-tert-Butylsulfonyl-6-[4-[4-(5-ethoxypyridin-3-yl)-3-methylbenzoyl]piperazin-1-yl]pyridazine-3-carboxamide]

ASMS ratio (%) (n = 1): 0.0%
ASMS ratio (%) (n = 2): 0.0%
Compound: CCOc1cncc(-c2ccc(CN3CCN(c4ccc(C(=O)NS(=O)(=O)CCC(F)(F)F)nn4)CC3)c3ccccc23)c1 [B2N092-01]

ASMS ratio (%) n = 1 [2]: −0.9%
ASMS ratio (%) n = 2 [2]: 4.4%
Compound: CCOc1cncc(-c2cc(CN3CCN(c4ccc(C(=O)N(C)CC56CC7CC(CC(C7)C5)C6)nn4)CC3)cc(OCC)c2)c1 [B3A082-01, N-(1-Adamantylmethyl)-6-[4-[[3-ethoxy-5-(5-ethoxypyridin-3-yl)phenyl]methyl]piperazin-1-yl]-N-methylpyridazine-3-carboxamide]

ASMS ratio (%) (n = 1): 0.0%
ASMS ratio (%) (n = 2): 0.0%
Compound: CCOc1cccc(-c2csc(CN3CCN(c4ccc(C(=O)NS(=O)(=O)C(C)(C)C)cc4)CC3)c2)c1 [B2L067-01, N-tert-Butylsulfonyl-4-[4-[[4-(3-ethoxyphenyl)thiophen-2-yl]methyl]piperazin-1-yl]benzamide]

ASMS ratio (%) (n = 1): 0.0%
ASMS ratio (%) (n = 2): 0.0%
Compound: CCOc1cncc(C#Cc2cncc(C(=O)N3CCN(c4ccc(C(=O)NS(=O)(=O)c5ccc(NCCSc6ccccc6)c(C(F)(F)F)c5)nn4)CC3)c2)c1 [B2R010-01, 6-[4-[5-[2-(5-Ethoxypyridin-3-yl)ethynyl]pyridine-3-carbonyl]piperazin-1-yl]-N-[4-(2-phenylsulfanylethylamino)-3-(trifluoromethyl)phenyl]sulfonylpyridazine-3-carboxamide]

Compound: 4-[4-[[3-Ethoxy-5-(5-ethoxypyridin-3-yl)phenyl]methyl]piperazin-1-yl]-N-propylbenzamide [B1M011-01]
ASMS ratio (%) n = 1 [1]: 18.6%
ASMS ratio (%) n = 2 [1]: 7.5%

ASMS ratio (%) n = 1 [1]: 6.2%
ASMS ratio (%) n = 2 [1]: −0.7%
Compound: CCOc1cncc(-c2csc(CN3CCN(c4ccc(C(=O)NCC56CC7CC(CC(C7)C5)C6)nn4)CC3)c2)c1 [B1A094-01, N-(1-Adamantylmethyl)-6-[4-[[4-(5-ethoxypyridin-3-yl)thiophen-2-yl]methyl]piperazin-1-yl]pyridazine-3-carboxamide]

ASMS ratio (%) (n = 1): 9.7%
ASMS ratio (%) (n = 2): 0.0%
Compound: CCOc1cccc(-c2cc(C(=O)N3CCN(c4ccc(C(=O)NS(=O)(=O)c5ccc(NCCSc6ccccc6)c(C(F)(F)F)c5)nn4)CC3)cc(C(C)(C)C)c2)c1 [B2R015-01, 6-[4-[3-tert-Butyl-5-(3-ethoxyphenyl)benzoyl]piperazin-1-yl]-N-[4-(2-phenylsulfanylethylamino)-3-(trifluoromethyl)phenyl]sulfonylpyridazine-3-carboxamide]

Compound: CCOc1cccc(-c2ccc(C(=O)N3CCN(c4ccc(C(=O)N(CC)CC)cc4)CC3)cc2C)c1 [B4J025-01, 4-[4-[4-(3-Ethoxyphenyl)-3-methylbenzoyl]piperazin-1-yl]-N,N-diethylbenzamide]
ASMS ratio (%) n = 1 [2]: 3.6%
ASMS ratio (%) n = 2 [2]: −0.3%

ASMS ratio (%) n = 1 [2]: 9.1%
ASMS ratio (%) n = 2 [2]: −5.1%
Compound: CCOc1cccc(C#Cc2ccccc2C(=O)N2CCN(c3ccc(C(=O)N(C)CC45CC6CC(CC(C6)C4)C5)nn3)CC2)c1 [B3A007-01, N-(1-Adamantylmethyl)-6-[4-[2-[2-(3-ethoxyphenyl)ethynyl]benzoyl]piperazin-1-yl]-N-methylpyridazine-3-carboxamide]

ASMS ratio (%) n = 1 (AS-MS, mixture library, Bcl-2): 9.8%
ASMS ratio (%) n = 2 (AS-MS, mixture library, Bcl-2): 7.0%
Compound: CCOc1cccc(-c2cc(OC)c(CN3CCN(c4ccc(C(=O)NS(=O)(=O)c5ccc(NCCSc6ccccc6)c([N+](=O)[O-])c5)cc4)CC3)c(OC)c2)c1 [B2Q059-01, 4-[4-[[4-(3-Ethoxyphenyl)-2,6-dimethoxyphenyl]methyl]piperazin-1-yl]-N-[3-nitro-4-(2-phenylsulfanylethylamino)phenyl]sulfonylbenzamide]

ASMS ratio (%) n = 1 [1]: 0.9%
ASMS ratio (%) n = 2 [1]: 0.0%
Compound: CCCNC(=O)c1ccc(N2CCN(Cc3ccccc3C#Cc3cncc(OCC)c3)CC2)cc1 [B1M054-01]

ASMS ratio (%) (n = 1): 9.7%
ASMS ratio (%) (n = 2): −4.8%
Compound: CCOc1cccc(-c2cc(C(=O)N3CCN(c4ccc(C(=O)NS(=O)(=O)c5ccc(NCCSc6ccccc6)c(C(F)(F)F)c5)cc4)CC3)cc(C(F)(F)F)c2)c1 [B2R039-01, 4-[4-[3-(3-Ethoxyphenyl)-5-(trifluoromethyl)benzoyl]piperazin-1-yl]-N-[4-(2-phenylsulfanylethylamino)-3-(trifluoromethyl)phenyl]sulfonylbenzamide]

ASMS ratio (%) n = 1 [1]: −0.1%
ASMS ratio (%) n = 2 [1]: 0.3%
Compound: CCOc1cccc(-c2ccccc2CCC(=O)N2CCN(c3ccc(C(=O)NCC(F)(F)F)nn3)CC2)c1 [B1K011-01, 6-[4-[3-[2-(3-Ethoxyphenyl)phenyl]propanoyl]piperazin-1-yl]-N-(2,2,2-trifluoroethyl)pyridazine-3-carboxamide]

ASMS ratio (%) n = 1 [2]: 1.9%
ASMS ratio (%) n = 2 [2]: −1.5%
Compound: CCOc1cccc(-c2cc(CN3CCN(c4ccc(C(=O)Nc5ccc(OC)cc5)cc4)CC3)cc(C(F)(F)F)c2)c1 [B1O061-01, 4-[4-[[3-(3-Ethoxyphenyl)-5-(trifluoromethyl)phenyl]methyl]piperazin-1-yl]-N-(4-methoxyphenyl)benzamide]

ASMS ratio (%) (n = 1): 0.0%
ASMS ratio (%) (n = 2): 0.0%
Compound: CCOc1cccc(-c2ccc(CN3CCN(c4ccc(C(=O)NS(C)(=O)=O)nn4)CC3)cc2C)c1 [B2I073-01, 6-[4-[[4-(3-Ethoxyphenyl)-3-methylphenyl]methyl]piperazin-1-yl]-N-methylsulfonylpyridazine-3-carboxamide]

Compound: CCOc1cncc(-c2cc(CN3CCN(c4ccc(C(=O)NS(=O)(=O)CCC(F)(F)F)cc4)CC3)cc(OCC)c2)c1 [B2N056-01]
ASMS ratio (%) (n = 1): 0.0%
ASMS ratio (%) (n = 2): 0.0%
